Assay results as given in patent US20090099167A1, “Organic compounds” (Novartis Institutes for Biomedical Research, priority 2004, published 2009).
Read-outs that look alike come from different tables or passages of the source.

What was measured:
c-Abl kinase = target: T1, c-Abl kinase (Homo sapiens, UniProt P00519); experiment: c-Abl protein-tyrosine kinase filter binding assay; type: biochemical
T1 construct: The His-tagged kinase domain of c-Abl is cloned and expressed in the baculovirus/Sf9 system; His; made in house; host or cells: Sf9 (baculovirus)
T1 sequence (P00519 242-493 limits assumed): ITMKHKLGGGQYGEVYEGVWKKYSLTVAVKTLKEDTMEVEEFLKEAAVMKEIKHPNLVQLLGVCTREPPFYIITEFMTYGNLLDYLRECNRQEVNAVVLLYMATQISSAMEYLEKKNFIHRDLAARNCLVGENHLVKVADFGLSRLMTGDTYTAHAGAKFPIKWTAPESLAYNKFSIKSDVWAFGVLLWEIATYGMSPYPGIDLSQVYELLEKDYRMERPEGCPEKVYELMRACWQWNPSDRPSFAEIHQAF
Method: The His-tagged kinase domain of c-Abl is cloned and expressed in the baculovirus/Sf9 system as described by Bhat et al. in J. Biol. Chem. 1997; 272:16170-16175. A protein of 37 kD (c-Abl kinase) is purified by a two-step procedure over a Cobalt metal chelate column followed by an anion exchange column with a yield of 1-2 mg/L of Sf9 cells (Bhat et al., reference cited). The purity of the c-Abl kinase is >90% as judged by SDS-PAGE after Coomassie blue staining. The assay contains (total volume of 30 μL): c-Abl kinase (50 ng), 20 mM Tris.HCl, pH 7.5, 10 mM MgCl2, 10 μM Na3VO4, 1 mM DTT and 0.06 μCi/assay [γ^33 P]-ATP (5 μM ATP) using 30 μg/mL poly-Ala,Glu,Lys,Tyr-6:2:5:1 (Poly-AEKY, Sigma P1152) in the presence of 1% DMSO. Reactions are terminated by adding 10 μL of 250 mM EDTA and 30 μL of the reaction mixture is transferred onto Immobilon-PVDF membrane (Millipore, Bedford, Mass., USA) previously soaked for 5 min with methanol, rinsed with water, then soaked for 5 min with 0.5% H3PO4 and mounted on vacuum manifold with disconnected vacuum source. After spotting all samples, vacuum is connected and each well rinsed with 200 μL 0.5% H3PO4. Membranes are removed and washed on a shaker with 0.5% H3PO4 (4 times) and once with ethanol. Membranes are counted after drying at ambient temperature, mounting in Packard TopCount 96-well frame, and addition of 10 μL/well of Microscint™ (Packard).

Tek = target: T2, Tek (Homo sapiens, UniProt Q02763); experiment: Tek kinase inhibition, GST-fused kinase domain; type: biochemical; settings: Table 5; read-out: Tek, IC50 class
T2 construct: N-terminally GST-fused (pAcG1, Pharmingen) KDR, Flt-1, Flk-1, Tek and PDGFR-β kinase domains are obtained from ProQinase, Freiburg, Germany; host or cells: Sf9 or High Five (baculovirus)
Description: The inhibition of IGF-1R and Ins-R can be determined as follows: The baculovirus donor vector pfbgx3IGFIRcd is used to generate a recombinant baculovirus that expresses the amino acid region 950-1337 of the mature peptide cytoplasmic domain of the human IGF-IR. To generate the cDNA fragment encoding the amino acid region 919-1343 of the intra-cytoplasmic kinase domain of the human insulin receptor, pC5hInsR is used. The fragments of the human IGF-IR and Ins-R are cloned, expressed and small-scale purified as a factor Xa-cleavable glutathione-S-transferase (GST)-fusion protein using the Bac-to-Bac™ system (GIBCO BRL) of recombinant baculovirus generation. Virus containing media is collected from the transfected cell culture and used for infection to increase its titer. Virus containing media obtained after two rounds of infection is used for large-scale protein expression. Cell extracts are prepared and loaded onto a glutathione-Sepharose (Pharmacia) column. After washing, the GST-tagged proteins are then eluted with a glutathione-containing buffer. Purified protein is stored at −70° C. in elution buffer. Tyrosine protein kinase assays with purified GST-IGF-1R and GST-ins-R are carried in a final volume of 30 μl containing 20 mM Tris-HCl, pH 7.6, 10 mM MgCl2, 0.01 mM Na3VO4, 1% DMSO, 1 mM DTT, 3 μg/ml poly(Glu,Tyr) 4:1 and 10 μM ATP (γ-[^33P]-ATP 0.1 μCi). The assay is performed in 96-well plates at ambient temperature for 20 min and terminated by addition of 25 μl 0.05 M EDTA pH 7.0. An aliquot of 40 μl is spotted with a multichannel dispenser on Whatman P81 membranes mounted in a Millipore Microtiter filter manifold connected to a low vacuum source. After elimination of liquid, the membrane is transferred to a sequence of 4 washing baths containing 0.5% H3PO4 and one with EtOH (shaking incubation for 10 min each), dried, mounted onto a Hewlett Packard TopCount manifold added 10 μl Microscint® and counted. Compounds of formula (I) show up to 90% inhibition of Ins-R at 10,000 nM, preferably between 60-90% inhibition. The inhibition of Tek can be determined as follows: The procedure of the expression, purification and assay these kinases has been described. Fabbro et al., Pharmacol. Ther. 82(2-3) 293-301 (1999). In brief, the glutathione S-transferase (GST) gene from the pAcG1 vector (Pharmingen) is excised with EcoRV and EcoRI and inserted into the cloning site of the Fast-Bac baculoviral vector (GIBCO) creating a 5530 bp vector with N-terminal cloning sites derived from the pAcG1 fusion vector (FBG0). The C-terminal cloning site may be any cloning site (from the Fast-Bac vector) downstream of the N-terminal cloning site used. N-terminally GST-fused (pAcG1, Pharmingen) KDR, Flt-1, Flk-1, Tek and PDGFR-β kinase domains are obtained from ProQinase, Freiburg, Germany. Tek is recloned into the FBG1 vector by EcoRI excision and ligation into EcoRI digested FBG1 (FBG1-Tek). The coding sequences for the whole cytoplasmic domain of c-Kit (aa 544-976) and c-Fms (aa 538-972) are amplified by PCR from human uterus and from human bone marrow cDNA libraries (Clontech), respectively. The amplified DNA fragments are fused to GST by cloning them into FBG1 as BamHI-EcoRI insertions, to yield FBG1-c-Kit and FBG1-c-Fms. Tek is recloned into the FBG0 transfer vector by EcoRI excision and ligation into EcoRI digested FBG0 (FBG-Tie2/Tek). FGFR-1 and c-met kinase domains are obtained by PCR from human A431 cells. N-terminal primers contain an overhanging EcoRI site, while C-terminal primers contain a XhoI site to aid cloning into the transfer vectors. After digestion of both the PCR fragments and FBG0 the cleavage products are gel-purified and ligated together to form the kinase constructs (FBG-Met, FBG-FGFR-1).
Viruses for each of the kinases are made according to the protocol supplied by GIBCO. […]

[1] = Table 5, read-out: C-abl, IC50 class
[2] = Table 4, read-out: c-abl, activity (IC50 for kinase inhibition)

T2 sequence (Q02763 824-1096 limits assumed, species assumed): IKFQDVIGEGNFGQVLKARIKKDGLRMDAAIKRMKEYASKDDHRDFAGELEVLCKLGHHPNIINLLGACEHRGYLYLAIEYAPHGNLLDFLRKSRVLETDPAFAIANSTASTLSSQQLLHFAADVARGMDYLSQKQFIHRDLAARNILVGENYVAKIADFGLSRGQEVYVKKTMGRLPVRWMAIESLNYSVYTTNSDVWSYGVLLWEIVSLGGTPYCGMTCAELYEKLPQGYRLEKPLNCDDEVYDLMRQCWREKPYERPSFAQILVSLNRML

Row | Compound | IC50 (c-Abl kinase; [1]) | IC50 (Tek) | IC50 (c-Abl kinase; [2])
1 | CN1CCN(c2cccc(-c3cnn4c(N)c(Cc5ccccc5)cnc34)c2)CC1 [Example 91, 6-Benzyl-3-[3-(4-methyl-piperazin-1-yl)-phenyl]-pyrazolo[1,5-a]pyrimidin-7-ylamine] | < 1 µM | > 10 µM | 
2 | Cc1nc2c(-c3cccc(N4CCN(CCO)CC4)c3)cnn2c(N)c1-c1ccc(F)c(Cl)c1 [Example 100, 2-(4-{3-[7-Amino-6-(3-chloro-4-fluoro-phenyl)-5-methyl-pyrazolo[1,5-a]pyrimidin-3-yl]-phenyl}-piperazin-1-yl)-ethanol] | < 1 µM | > 10 µM | 
3 | COc1cccc(-c2cnn3c(N)c(-c4cccc(O)c4)cnc23)c1 [Example 60, 3-[7-Amino-3-(3-methoxy-phenyl)-pyrazolo[1,5-a]pyrimidin-6-yl]-phenol] |  |  | < 10 µM
4 | Cc1nc2c(-c3ccc(N4CCN(C)CC4)cc3)cnn2c(N)c1-c1ccc(F)cc1 [Example 79, 6-(4-Fluoro-phenyl)-5-methyl-3-[4-(4-methyl-piperazin-1-yl)-phenyl]-pyrazolo[1,5-a]pyrimidin-7-ylamine] | < 1 µM | > 10 µM | 
5 | Cc1nc2c(-c3cccc(N4C[C@@H](C)O[C@@H](C)C4)c3)cnn2c(N)c1-c1cccc(Cl)c1 [Example 89, 6-(3-Chloro-phenyl)-3-[3-((2R,6S)-2,6-dimethyl-morpholin-4-yl)-phenyl]-5-methyl-pyrazolo[1,5-a]pyrimidin-7-ylamine] | < 1 µM | 1 to 10 µM | 
6 | COc1ccc(-c2cnn3c(N)c(-c4ccc(F)c(Cl)c4)c(C)nc23)cc1OC [Example 94, 6-(3-Chloro-4-fluoro-phenyl)-3-(3,4-dimethoxy-phenyl)-5-methyl-pyrazolo[1,5-a]pyrimidin-7-ylamine] | > 10 µM | > 10 µM | 
7 | Cc1nc2c(-c3cccc(N4CCN(C)CC4)c3)cnn2c(N)c1-c1ccc(F)c(F)c1 [Example 98, 6-(3,4-Difluoro-phenyl)-5-methyl-3-[3-(4-methyl-piperazin-1-yl)-phenyl]-pyrazolo[1,5-a]pyrimidin-7-ylamine] | < 1 µM | 1 to 10 µM | 
8 | CN1CCN(c2ccc(-c3cnn4c(N)c(-c5ccccc5Cl)cnc34)cc2)CC1 [Example 77, 6-(2-Chloro-phenyl)-3-[4-(4-methyl-piperazin-1-yl)-phenyl]-pyrazolo[1,5-a]pyrimidin-7-ylamine] |  | < 1 µM | 
9 | Cc1nc2c(-c3cccc(N4CCC(N5CCCC5)CC4)c3)cnn2c(N)c1-c1ccc(F)cc1 [Example 103, 6-(4-Fluoro-phenyl)-5-methyl-3-[3-(4-pyrrolidin-1-yl-piperidin-1-yl)-phenyl]-pyrazolo[1,5-a]pyrimidin-7-ylamine] | < 1 µM | > 10 µM | 
10 | Cc1nc2c(-c3cccc(N4CCC(N5CCCC5)CC4)c3)cnn2c(N)c1-c1cccc(Cl)c1 [Example 102, 6-(3-Chloro-phenyl)-5-methyl-3-[3-(4-pyrrolidin-1-yl-piperidin-1-yl)-phenyl]-pyrazolo[1,5-a]pyrimidin-7-ylamine] | < 1 µM | 1 to 10 µM | 
11 | Cc1nc2c(-c3cccc(N4CCN(C)CC4)c3)cnn2c(N)c1-c1ccc(F)c(Cl)c1 [Example 82, 6-(3-Chloro-4-fluoro-phenyl)-5-methyl-3-[3-(4-methyl-piperazin-1-yl)-phenyl]pyrazolo[1,5-a]pyrimidin-7-ylamine] | < 1 µM | > 10 µM | 
12 | COc1ccc(-c2cnn3c(N)c(-c4ccc(F)cc4)c(C)nc23)cc1 [Example 96, 6-(4-Fluoro-phenyl)-3-(4-methoxy-phenyl)-5-methyl-pyrazolo[1,5-a]pyrimidin-7-ylamine] | < 1 µM | > 10 µM | 
13 | Cc1nc2c(-c3cccc([N+]4([O-])CC[N+](C)([O-])CC4)c3)cnn2c(N)c1-c1ccc(F)cc1 (stereo not shown) [Example 107, 6-(4-Fluoro-phenyl)-5-methyl-3-[3-(4-methyl-1,4-dioxy-piperazin-1-yl)-phenyl]-pyrazolo[1,5-a]pyrimidin-7-ylamine] | < 1 µM | > 10 µM | 
14 | COc1ccc(-c2cnn3c(N)c(-c4ccc(F)c(F)c4)c(C)nc23)cc1OC [Example 99, 6-(3,4-Difluoro-phenyl)-3-(3,4-dimethoxy-phenyl)-5-methyl-pyrazolo[1,5-a]pyrimidin-7-ylamine] | < 1 µM | > 10 µM | 
15 | COc1cc(N2CCN(C)CC2)ccc1-c1cnn2c(N)c(-c3cccc(Cl)c3)c(C)nc12 [Example 75, 6-(3-Chloro-phenyl)-3-[2-methoxy-4-(4-methyl-piperazin-1-yl)-phenyl]-5-methyl-pyrazolo[1,5-a]pyrimidin-7-ylamine] | < 1 µM |  | 
16 | Nc1c(-c2cccc(O)c2)cnc2c(-c3cccnc3)cnn12 [Example 46, 3-[7-Amino-3-pyridin-3-yl-pyrazolo[1,5-a]pyrimidin-6-yl]-phenol] |  |  | < 10 µM
17 | COc1ccc(-c2cnn3c(N)c(-c4cccc(Cl)c4)c(CF)nc23)cc1OC [Example 92, 6-(3-Chloro-phenyl)-3-(3,4-dimethoxy-phenyl)-5-fluoromethyl-pyrazolo[1,5-a]pyrimidin-7-ylamine] |  | > 10 µM | 
18 | COc1ccccc1-c1cnn2c(N)c(-c3cccc(O)c3)cnc12 [Example 48, 3-[7-Amino-3-(2-methoxy-phenyl)-pyrazolo[1,5-a]pyrimidin-6-yl]-phenol] |  |  | < 10 µM
19 | CN1CCN(c2cccc(-c3cnn4c(N)c(-c5ccccc5Cl)cnc34)c2)CC1 [Example 78, 6-(2-Chloro-phenyl)-3-[3-(4-methyl-piperazin-1-yl)-phenyl]-pyrazolo[1,5-a]pyrimidin-7-ylamine] |  | 1 to 10 µM | 
